Key:
[1] = Conversion rate of salt-form prodrugs to parent compound in HEPES buffer solution; format: physicochemical; conditions: conversion to Compound 1, HEPES buffer pH 7.4, 37 °C
Protocol: Adjust the pH to 7.4 using 0.5 M NaOH, then dilute to a final volume 100 mL with distilled water.
(§1) Sample Analysis: Dissolve 0.6 mg of the compound in 250 µl of deionized water separately. Add 250 µl of mouse serum or HEPES 7.4 solution to the sample, incubate at a constant temperature of 37 °C, and collect samples at different time points. Pipette 20 µl of the sample to an EP tube, add 60 µl of methanol, vortex to mix thoroughly, and centrifuge at 12,000 rpm at 4 °C for 10 min. At 1 h, 2 h, 4 h, 8 h, and 12 h respectively, collect the supernatant for HPLC analysis. Inject 10 µL of sample and record the corresponding peak areas.

[2] = Conversion rate of salt-form prodrugs to parent compound in mouse plasma; format: in vitro ADME; conditions: conversion to Compound 1, mouse plasma, 37 °C
Protocol: Pharmaceutically acceptable salts of guaiane-type sesquiterpene lactone derivatives were selected and evaluated for their conversion rates to Compound 1 and Compound 83 in plasma and HEPES buffer, with results shown in Tables 2-1, 2-2, 3-1, and 3-2.
Plasma Preparation: Collect mouse plasma into an EP tube pre-loaded with sodium heparin, centrifuge at 8000 rpm for 10 minutes at 4°C, and then collect the supernatant.
as §1, with “areas. Chromatographic conditions: Hanbang C18 column (4.6 × 250 mm, 5 µm); mobile phase: acetonitrile: […] ammonium formate solution = 60:40; flow rate 1.0 mL/min; detection wavelength 210 nm; column temperature 30 °C. [drawing 171] Table 2-1. Conversion Rate of Compounds 20-42 to Compound 1 at Different Time Points in HEPES Buffer Solution” for “areas.”

Structure (SMILES)	Release rate ([1]; 1 h) [%]	Release rate ([1]; 2 h) [%]	Release rate ([1]; 4 h) [%]	Release rate ([1]; 8 h) [%]	Release rate ([1]; 12 h) [%]	Release rate ([2]; 1 h) [%]	Release rate ([2]; 2 h) [%]	Release rate ([2]; 4 h) [%]	Release rate ([2]; 8 h) [%]	Release rate ([2]; 12 h) [%]
C[C@@]12CC[C@@H]3[C@H](OC(=O)[C@H]3CN3CCCC3)[C@@H]3[C@]1(CC[C@@]3(C)O)C2 [compound 22]	6.4	14.8	26.6	41.3	53.7					
CCOC(=O)[C@@H]1CCCN1C[C@@H]1C(=O)O[C@H]2[C@H]1CC[C@@]1(C)C[C@]13CC[C@@](C)(O)[C@H]23 [compound 23]	6.2	14.3	26.8	41.1	52.8	7.2	14.3	26.8	45.1	52.8
C[C@@]12CC[C@@H]3[C@H](OC(=O)[C@H]3CN3CCCCC3)[C@@H]3[C@]1(CC[C@@]3(C)O)C2 [compound 24]	6.8	15.1	26.7	42.8	54.0	7.7	17.1	27.7	47.8	57.9
C[C@@]12CC[C@@H]3[C@H](OC(=O)[C@H]3CN3CCOCC3)[C@@H]3[C@]1(CC[C@@]3(C)O)C2 [compound 25]	6.8	14.1	26.1	42.8	51.8	6.8	14.1	25.7	43.8	51.8
C[C@@]12CC[C@@H]3[C@H](OC(=O)[C@H]3CN3CCNCC3)[C@@H]3[C@]1(CC[C@@]3(C)O)C2 [compound 26]	6.8	16.1	27.3	43.5	55.6					
CCN1CCN(C[C@@H]2C(=O)O[C@H]3[C@H]2CC[C@@]2(C)C[C@]24CC[C@@](C)(O)[C@H]34)CC1 [compound 27]						7.9	17.4	28.4	48.2	59.1
CCN(CC)C[C@@H]1C(=O)O[C@H]2[C@H]1CC[C@@]1(C)C[C@]13CC[C@@](C)(O)[C@H]23 [compound 28]	6.8	14.5	24.4	40.4	50.0	6.8	14.5	24.4	40.4	49.1
CCCN(CCC)C[C@@H]1C(=O)O[C@H]2[C@H]1CC[C@@]1(C)C[C@]13CC[C@@](C)(O)[C@H]23 [compound 29]	6.8	14.2	24.6	40.2	49.8	6.8	14.2	24.6	40.2	49.0
CCCCN(CCCC)C[C@@H]1C(=O)O[C@H]2[C@H]1CC[C@@]1(C)C[C@]13CC[C@@](C)(O)[C@H]23 [compound 30]	6.6	14.6	23.8	40.8	49.8	6.6	13.6	23.8	40.8	48.8

From patent EP4813381A1, “PHARMACEUTICAL USE OF GUAIANE SESQUITERPENE DERIVATIVE” (Nanjing University Of Chinese Medicine, priority 2023, dated 2025)
